In patent US20080119515A1, “Heterocyclic Kinase Inhibitors: Methods of Use and Synthesis” (priority 2003, published 2008) one finds IC50 data, which are given here for 53 compounds.

The structures appear in SMILES notation. pIC50: −log10 of the molar value.

The target in this assay is T1, ZAP-70 (Homo sapiens, UniProt P43403).
T1 sequence (P43403 1-619): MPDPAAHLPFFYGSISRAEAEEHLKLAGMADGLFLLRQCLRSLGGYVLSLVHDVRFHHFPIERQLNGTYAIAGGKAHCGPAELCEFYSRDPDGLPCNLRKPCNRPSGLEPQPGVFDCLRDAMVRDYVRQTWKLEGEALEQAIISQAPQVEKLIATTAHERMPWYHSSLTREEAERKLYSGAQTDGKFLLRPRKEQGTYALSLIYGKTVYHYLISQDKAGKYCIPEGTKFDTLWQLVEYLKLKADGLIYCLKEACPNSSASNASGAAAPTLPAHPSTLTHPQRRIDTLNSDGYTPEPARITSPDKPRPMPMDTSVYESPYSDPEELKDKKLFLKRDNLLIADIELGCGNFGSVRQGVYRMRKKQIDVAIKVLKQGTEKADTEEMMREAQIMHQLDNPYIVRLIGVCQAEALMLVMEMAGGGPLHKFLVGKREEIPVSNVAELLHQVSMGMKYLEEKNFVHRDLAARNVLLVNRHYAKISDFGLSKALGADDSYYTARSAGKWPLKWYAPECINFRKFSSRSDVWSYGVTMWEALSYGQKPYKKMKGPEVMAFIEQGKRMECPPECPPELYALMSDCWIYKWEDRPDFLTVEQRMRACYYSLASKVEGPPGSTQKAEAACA
The experiment in a line: DELFIA assay (ZAP-70 kinase, phosphorylation of biotinylated poly(glu,tyr)). Type of assay: biochemical. The settings on record: ZAP-70 DELFIA, class symbols; read-out: Activity (IC50 in vitro). A digest of the protocol:
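3.1 nM ZAP-70 pre-incubated 10 min at room temperature with compound ([…]) and 62.5 nM biotinylated poly(glu,tyr) in 62.5 mM Mops pH 7.0, 12.5 mM MgCl2, 12.5% glycerol, 6.25% DMSO (pre-incubation concentrations); ATP added from 5 mM stock, 30 min reaction, EDTA stop. Phosphorylation read by DELFIA europium anti-phosphotyrosine fluorescence (340/615).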

For the compound `N#Cc1ccc(-c2ccc3nc(NC4Cc5ccccc5C4)cc(C(=O)N4CCC[C@H]4CN4CCCC4)c3c2)cc1` [Compound 155], the negative-log IC50 (pIC50) was less than 5.00.

For `N#Cc1ccc(-c2ccc3nc(NCCc4ccccc4Cl)cc(C(=O)N4CCC[C@H]4CN4CCCC4)c3c2)cc1` [Compound 156], the pIC50 was less than 5.00.

In the case of `N#Cc1ccc(-c2ccc3nc(NCc4cccc(C(F)(F)F)c4)cc(C(=O)N4CCC[C@H]4CN4CCCC4)c3c2)cc1` [Compound 157], the pIC50 is less than 5.00.

Take `N#Cc1ccc(-c2ccc3nc(NCc4ccccc4F)cc(C(=O)N4CCC[C@H]4CN4CCCC4)c3c2)cc1` [Compound 158]: the pIC50 was less than 5.00.

As to `N#Cc1ccc(-c2ccc3nc(NCc4ccc(F)cc4)cc(C(=O)N4CCC[C@H]4CN4CCCC4)c3c2)cc1` [Compound 159], the pIC50 was less than 5.00.

As for `COc1cccc(CNc2cc(C(=O)N3CCC[C@H]3CN3CCCC3)c3cc(-c4ccc(C#N)cc4)ccc3n2)c1` [Compound 160], the pIC50 was less than 5.00.

Regarding `N#Cc1ccc(-c2ccc3nc(NCc4cccc(F)c4)cc(C(=O)N4CCC[C@H]4CN4CCCC4)c3c2)cc1` [Compound 161], the pIC50 is less than 5.00.

As to `N#Cc1ccc(-c2ccc3nc(NCc4ccc(F)c(F)c4)cc(C(=O)N4CCC[C@H]4CN4CCCC4)c3c2)cc1` [Compound 162], the pIC50 is less than 5.00.

On to `N#Cc1ccc(-c2ccc3nc(NCc4cc(F)ccc4F)cc(C(=O)N4CCC[C@H]4CN4CCCC4)c3c2)cc1` [Compound 163], for which the negative-log IC50 (pIC50) is less than 5.00.

In the case of `N#Cc1ccc(-c2ccc3nc(NCc4ccccc4C(F)(F)F)cc(C(=O)N4CCC[C@H]4CN4CCCC4)c3c2)cc1` [Compound 164], the pIC50 is less than 5.00.

Turning to `N#Cc1ccc(-c2ccc3nc(NCc4cccc(Br)c4)cc(C(=O)N4CCC[C@H]4CN4CCCC4)c3c2)cc1` [Compound 165], the negative logarithm of the IC50 (pIC50) was less than 5.00.

`N#Cc1ccc(-c2ccc3nc(NCc4ccc(Cl)cc4Cl)cc(C(=O)N4CCC[C@H]4CN4CCCC4)c3c2)cc1` [Compound 166]: the pIC50 is less than 5.00.

In the case of `N#Cc1ccc(-c2ccc3nc(NCc4cccc(Cl)c4)cc(C(=O)N4CCC[C@H]4CN4CCCC4)c3c2)cc1` [Compound 167], the pIC50 was less than 5.00.

Regarding `N#Cc1ccc(-c2ccc3nc(NCc4ccc(Cl)cc4)cc(C(=O)N4CCC[C@H]4CN4CCCC4)c3c2)cc1` [Compound 168], the pIC50 is less than 5.00.

Regarding `N#Cc1ccc(-c2ccc3nc(NCc4ccccc4Cl)cc(C(=O)N4CCC[C@H]4CN4CCCC4)c3c2)cc1` [Compound 169], the pIC50 was less than 5.00.

As for `N#Cc1ccc(-c2ccc3nc(NCCc4ccccc4)cc(C(=O)N4CCC[C@H]4CN4CCCC4)c3c2)cc1` [Compound 170], the pIC50 was less than 5.00.

For `CC[C@H](Nc1cc(C(=O)N2CCC[C@H]2CN2CCCC2)c2cc(-c3ccc(C#N)cc3)ccc2n1)c1ccccc1` [Compound 171], the pIC50 is less than 5.00.

With `Cc1ccccc1CNc1cc(C(=O)N2CCC[C@H]2CN2CCCC2)c2cc(-c3ccc(C#N)cc3)ccc2n1` [Compound 172], the negative-log IC50 (pIC50) was less than 5.00.

Regarding `Cc1ccc(CCNc2cc(C(=O)N3CCC[C@H]3CN3CCCC3)c3cc(-c4ccc(C#N)cc4)ccc3n2)cc1` [Compound 173], the pIC50 is less than 5.00.

On to `N#Cc1ccc(-c2ccc3nc(NCCc4ccc(Cl)cc4)cc(C(=O)N4CCC[C@H]4CN4CCCC4)c3c2)cc1` [Compound 174], for which the pIC50 was less than 5.00.

For `CN(CCc1ccccc1)c1cc(C(=O)N2CCC[C@H]2CN2CCCC2)c2cc(-c3ccc(C#N)cc3)ccc2n1` [Compound 175], the pIC50 was less than 5.00.

As for `C[C@H](Nc1cc(C(=O)N2CCC[C@H]2CN2CCCC2)c2cc(-c3ccc(C#N)cc3)ccc2n1)c1ccccc1` [Compound 176], the pIC50 is less than 5.00.

Consider `COc1ccc(CCNc2cc(C(=O)N3CCC[C@H]3CN3CCCC3)c3cc(-c4ccc(C#N)cc4)ccc3n2)cc1` [Compound 177], for which the negative logarithm of the IC50 (pIC50) was less than 5.00.

On to `Cc1ccc(CNc2cc(C(=O)N3CCC[C@H]3CN3CCCC3)c3cc(-c4ccc(C#N)cc4)ccc3n2)cc1` [Compound 178], for which the negative logarithm of the IC50 (pIC50) was less than 5.00.

For the compound `N#Cc1ccc(-c2ccc3nc(NCc4ccc(F)c(Cl)c4)cc(C(=O)N4CCC[C@H]4CN4CCCC4)c3c2)cc1` [Compound 179], the pIC50 was less than 5.00.

With `N#Cc1ccc(-c2ccc3nc(NCc4ccc(Cl)cc4F)cc(C(=O)N4CCC[C@H]4CN4CCCC4)c3c2)cc1` [Compound 180], the pIC50 was less than 5.00.

With `N#Cc1ccc(-c2ccc3nc(NCc4ccccc4Br)cc(C(=O)N4CCC[C@H]4CN4CCCC4)c3c2)cc1` [Compound 181], the pIC50 was less than 5.00.

For the compound `N#Cc1ccc(-c2ccc3nc(N[C@@H]4CCc5ccccc54)cc(C(=O)N4CCC[C@H]4CN4CCCC4)c3c2)cc1` [Compound 182], the pIC50 is less than 5.00.

For `N#Cc1ccc(-c2ccc3nc(N[C@H]4CCc5ccccc54)cc(C(=O)N4CCC[C@H]4CN4CCCC4)c3c2)cc1` [Compound 183], the pIC50 was less than 5.00.

`CC[C@@H](Nc1cc(C(=O)N2CCC[C@H]2CN2CCCC2)c2cc(-c3ccc(C#N)cc3)ccc2n1)c1ccccc1` [Compound 184]: the negative logarithm of the IC50 (pIC50) is less than 5.00.

Take `COC[C@H](Cc1ccccc1)Nc1cc(C(=O)N2CCC[C@H]2CN2CCCC2)c2cc(-c3ccc(C#N)cc3)ccc2n1` [Compound 185]: the pIC50 was less than 5.00.

For the compound `C[C@@H](CNc1cc(C(=O)N2CCC[C@H]2CN2CCCC2)c2cc(-c3ccc(C#N)cc3)ccc2n1)c1ccccc1` [Compound 186], the pIC50 was less than 5.00.

For the compound `C[C@H](CNc1cc(C(=O)N2CCC[C@H]2CN2CCCC2)c2cc(-c3ccc(C#N)cc3)ccc2n1)c1ccccc1` [Compound 187], the pIC50 is less than 5.00.

Take `N#Cc1ccc(-c2ccc3nc(NCc4cc(F)cc(F)c4)cc(C(=O)N4CCC[C@H]4CN4CCCC4)c3c2)cc1` [Compound 188]: the negative logarithm of the IC50 (pIC50) is less than 5.00.

Consider `N#Cc1ccc(-c2ccc3nc(NCc4cc(Cl)cc(Cl)c4)cc(C(=O)N4CCC[C@H]4CN4CCCC4)c3c2)cc1` [Compound 189], for which the pIC50 is less than 5.00.

On to `N#Cc1ccc(-c2ccc3nc(NCc4cccc(OC(F)(F)F)c4)cc(C(=O)N4CCC[C@H]4CN4CCCC4)c3c2)cc1` [Compound 190], for which the pIC50 is less than 5.00.

`N#Cc1ccc(-c2ccc3nc(NCCc4ccccc4F)cc(C(=O)N4CCC[C@H]4CN4CCCC4)c3c2)cc1` [Compound 191]: the pIC50 was less than 5.00.

Consider `N#Cc1ccc(-c2ccc3nc(NCCc4ccc(F)cc4)cc(C(=O)N4CCC[C@H]4CN4CCCC4)c3c2)cc1` [Compound 192], for which the negative logarithm of the IC50 (pIC50) is less than 5.00.

On to `N#Cc1ccc(-c2ccc3nc(NCCc4ccc(Cl)cc4Cl)cc(C(=O)N4CCC[C@H]4CN4CCCC4)c3c2)cc1` [Compound 193], for which the pIC50 was less than 5.00.

In the case of `N#Cc1ccc(-c2ccc3nc(NCCc4cccc(F)c4)cc(C(=O)N4CCC[C@H]4CN4CCCC4)c3c2)cc1` [Compound 194], the negative logarithm of the IC50 (pIC50) is less than 5.00.

For `N#Cc1ccc(-c2ccc3nc(NCc4cc(F)cc(C(F)(F)F)c4)cc(C(=O)N4CCC[C@H]4CN4CCCC4)c3c2)cc1` [Compound 195], the pIC50 was less than 5.00.

For `N#Cc1ccc(-c2ccc3nc(NCCc4cccc(Cl)c4)cc(C(=O)N4CCC[C@H]4CN4CCCC4)c3c2)cc1` [Compound 196], the pIC50 is less than 5.00.

On to `COc1cccc(CCNc2cc(C(=O)N3CCC[C@H]3CN3CCCC3)c3cc(-c4ccc(C#N)cc4)ccc3n2)c1` [Compound 197], for which the pIC50 is less than 5.00.

For `N#Cc1ccc(-c2ccc3nc(NCc4ccc(F)cc4F)cc(C(=O)N4CCC[C@H]4CN4CCCC4)c3c2)cc1` [Compound 198], the pIC50 was less than 5.00.

As to `C[C@@H](c1ccccc1)N(C)c1cc(C(=O)N2CCC[C@H]2CN2CCCC2)c2cc(-c3ccc(C#N)cc3)ccc2n1` [Compound 199], the pIC50 is less than 5.00.

Consider `C[C@H](c1ccccc1)N(C)c1cc(C(=O)N2CCC[C@H]2CN2CCCC2)c2cc(-c3ccc(C#N)cc3)ccc2n1` [Compound 200], for which the pIC50 is less than 5.00.

`C[C@@H](Nc1cc(C(=O)N2CCC[C@H]2CN2CCCC2)c2cc(-c3ccc(C#N)cc3)ccc2n1)c1ccccc1` [Compound 201]: the pIC50 was less than 5.00.

`COc1ccc([C@@H](C)Nc2cc(C(=O)N3CCC[C@H]3CN3CCCC3)c3cc(-c4ccc(C#N)cc4)ccc3n2)cc1` [Compound 202]: the pIC50 is less than 5.00.

In the case of `COc1cccc([C@@H](C)Nc2cc(C(=O)N3CCC[C@H]3CN3CCCC3)c3cc(-c4ccc(C#N)cc4)ccc3n2)c1` [Compound 203], the pIC50 is less than 5.00.

On to `COc1cccc([C@H](C)Nc2cc(C(=O)N3CCC[C@H]3CN3CCCC3)c3cc(-c4ccc(C#N)cc4)ccc3n2)c1` [Compound 204], for which the pIC50 was less than 5.00.

On to `N#Cc1ccc(-c2ccc3nc(N[C@@H]4CCCc5ccccc54)cc(C(=O)N4CCC[C@H]4CN4CCCC4)c3c2)cc1` [Compound 205], for which the pIC50 was less than 5.00.

In the case of `N#Cc1ccc(-c2ccc3nc(N[C@H]4CCCc5ccccc54)cc(C(=O)N4CCC[C@H]4CN4CCCC4)c3c2)cc1` [Compound 206], the pIC50 was less than 5.00.

As to `C[C@@H](Nc1cc(C(=O)N2CCC[C@H]2CN2CCCC2)c2cc(-c3ccc(C#N)cc3)ccc2n1)c1ccc2ccccc2c1` [Compound 207], the pIC50 is less than 5.00.
